Patent US20230263822A1, “MODULATION OF FACTOR 11 EXPRESSION” (Ionis Pharmaceuticals, Inc., priority 2008, published 2023)

Assay: Hematology assays in cynomolgus monkeys (Example 45)
Format: in vivo
Description: Groups, each consisting of two male and three female monkeys, were injected subcutaneously with ISIS 416838, ISIS 416850, ISIS 416858, ISIS 416864, or ISIS 417002 in escalating doses. Antisense oligonucleotide was administered to the monkeys at 5 mg/kg three times per a week for week 1; 5 mg/kg twice per week for weeks 2 and 3; 10 mg/kg three times per week for week 4; 10 mg/kg twice per week for weeks 5 and 6; 25 mg/kg three times per week for week 7; and 25 mg/kg twice per week for weeks 8, 9, 10, 11, and 12. One control group, consisting of two male and three female monkeys, was injected subcutaneously with PBS according to the same dosing regimen. An additional experimental group, consisting of two male and three female monkeys, was injected subcutaneously with ISIS 416850 in a chronic, lower dose regimen. Antisense oligonucleotide was administered to the monkeys at 5 mg/kg three times per week for week 1; 5 mg/kg twice per week for week 2 and 3; 10 mg/kg three times per week for week 4; and 10 mg/kg twice per week for weeks 5 to 12. Body weights were measured weekly. Blood samples were collected 14 days and 5 days before the start of treatment and subsequently once per week for Factor 11 protein activity analysis in plasma, fibrinogen measurement, PT and aPTT measurements, bleeding times, and measurement of various hematologic factors. On day 85, the monkeys were euthanized by exsanguination while under deep anesthesia, and organs harvested for further analysis.
The ISIS oligonucleotide, ISIS 416850, given with the chronic dose regimen is distinguished from the other oligonucleotides with an asterisk (*).

[1] = day 43, chronic dose regimen (*)
[2] = day 43, escalating dose regimen
[3] = day 50, chronic dose regimen (*)
[4] = day 50, escalating dose regimen
[5] = day 57, escalating dose regimen
[6] = day 64, escalating dose regimen
[7] = day 71, escalating dose regimen
[8] = day 78, escalating dose regimen
[9] = day 85, escalating dose regimen
[10] = day −5, chronic dose regimen (*)
[11] = day −5, escalating dose regimen
[12] = day −14, chronic dose regimen (*)
[13] = day −14, escalating dose regimen

Substance: ISIS 416850: MOE gapmer, nucleobases 1275 to 1318 of SEQ ID NO: 1 (Table 8) (antisense TGCACAGTTTCTGGCAGGCC; MOE gapmer, wing and gap sizes not given here)
- monocytes [1]: 1.8%
- neutrophils [1]: 61%
- platelet count [1]: 391000 µL⁻¹
- reticulocytes [1]: 1.0%
- MCH [2]: 23 pg
- MCHC [2]: 29 g/dL
- MCV [2]: 79 fL
- RBC count [2]: 5.2e+06 µL⁻¹
- WBC count [2]: 9000 µL⁻¹
- hematocrit [2]: 40%
- hemoglobin [2]: 11.8 g/dL
- basophils (day 50): 0.3%
- eosinophils (day 50): 1.2%
- lymphocytes (day 50): 49%
- monocytes (day 50): 3.7%
- neutrophils (day 50): 45%
- platelet count (day 50): 487000 µL⁻¹
- reticulocytes (day 50): 2.7%
- MCH [3]: 23 pg
- MCHC [3]: 29 g/dL
- MCV [3]: 80 fL
- RBC count [3]: 5.3e+06 µL⁻¹
- WBC count [3]: 15000 µL⁻¹
- basophils [3]: 0.2%
- eosinophils [3]: 0.3%
- hematocrit [3]: 42%
- hemoglobin [3]: 11.9 g/dL
- lymphocytes [3]: 35%
- monocytes [3]: 1.8%
- neutrophils [3]: 62%
- platelet count [3]: 351000 µL⁻¹
- reticulocytes [3]: 1.2%
- MCH [4]: 23 pg
- MCHC [4]: 28 g/dL
- MCV [4]: 83 fL
- RBC count [4]: 5.2e+06 µL⁻¹
- WBC count [4]: 11000 µL⁻¹
- hematocrit [4]: 42%
- hemoglobin [4]: 11.8 g/dL
- basophils (day 57): 0.4%
- eosinophils (day 57): 1.0%
- lymphocytes (day 57): 45%
- monocytes (day 57): n.d.3.2%
- neutrophils (day 57): 49%
- platelet count (day 57): 528000 µL⁻¹
- reticulocytes (day 57): 2.0%
- MCH [5]: 23 pg
- MCHC [5]: 29 g/dL
- MCV [5]: 80 fL
- RBC count [5]: 5.2e+06 µL⁻¹
- WBC count [5]: 11000 µL⁻¹
- hematocrit [5]: 42%
- hemoglobin [5]: 12.1 g/dL
- basophils (day 64): 0.4%
- eosinophils (day 64): 1.3%
- lymphocytes (day 64): 53%
- monocytes (day 64): n.d.3.5%
- neutrophils (day 64): 41%
- platelet count (day 64): 496000 µL⁻¹
- reticulocytes (day 64): 1.7%
- MCHC [6]: 29 g/dL
- MCV [6]: 79 fL
- RBC count [6]: 5.4e+06 µL⁻¹
- WBC count [6]: 11000 µL⁻¹
- hematocrit [6]: 43%
- hemoglobin [6]: 12.3 g/dL
- basophils (day 71): 0.3%
- eosinophils (day 71): 1.8%
- lymphocytes (day 71): 61%
- monocytes (day 71): n.d.4.7%
- neutrophils (day 71): 27%
- platelet count (day 71): 465000 µL⁻¹
- reticulocytes (day 71): 1.8%
- MCHC [7]: 28 g/dL
- MCV [7]: 80 fL
- RBC count [7]: 5.4e+06 µL⁻¹
- WBC count [7]: 15000 µL⁻¹
- hematocrit [7]: 43%
- hemoglobin [7]: 12.3 g/dL
- basophils (day 78): 0.3%
- eosinophils (day 78): 1.0%
- lymphocytes (day 78): 51%
- monocytes (day 78): n.d.4.5%
- neutrophils (day 78): 42%
- platelet count (day 78): 449000 µL⁻¹
- reticulocytes (day 78): 1.8%
- MCHC [8]: 29 g/dL
- MCV [8]: 79 fL
- RBC count [8]: 5.3e+06 µL⁻¹
- WBC count [8]: 12000 µL⁻¹
- hematocrit [8]: 41%
- hemoglobin [8]: 12.2 g/dL
- basophils (day 85): 0.3%
- eosinophils (day 85): 1.2%
- lymphocytes (day 85): 34%
- monocytes (day 85): n.d.3.5%
- neutrophils (day 85): 60%
- platelet count (day 85): 458000 µL⁻¹
- reticulocytes (day 85): 2.3%
- MCHC [9]: 30 g/dL
- MCV [9]: 77 fL
- RBC count [9]: 5.5e+06 µL⁻¹
- WBC count [9]: 15000 µL⁻¹
- hematocrit [9]: 42%
- hemoglobin [9]: 12.7 g/dL
- basophils (day −5): 0.2%
- eosinophils (day −5): 1.6%
- lymphocytes (day −5): 43%
- monocytes (day −5): 2.8%
- neutrophils (day −5): 52%
- platelet count (day −5): 573000 µL⁻¹
- reticulocytes (day −5): 1.2%
- MCH [10]: 23 pg
- MCHC [10]: 30 g/dL
- MCV [10]: 78 fL
- RBC count [10]: 5.5e+06 µL⁻¹
- WBC count [10]: 15000 µL⁻¹
- basophils [10]: 0.3%
- eosinophils [10]: 0.7%
- hematocrit [10]: 43%
- hemoglobin [10]: 12.8 g/dL
- lymphocytes [10]: 43%
- monocytes [10]: 2.4%
- neutrophils [10]: 53%
- platelet count [10]: 434000 µL⁻¹
- reticulocytes [10]: 0.8%
- MCH [11]: 23 pg
- MCHC [11]: 30 g/dL
- MCV [11]: 77 fL
- RBC count [11]: 5.5e+06 µL⁻¹
- WBC count [11]: 13000 µL⁻¹
- hematocrit [11]: 43%
- hemoglobin [11]: 12.7 g/dL
- basophils (day −14): 0.2%
- eosinophils (day −14): 1.0%
- lymphocytes (day −14): 47%
- monocytes (day −14): 2.3%
- neutrophils (day −14): 49%
- platelet count (day −14): 528000 µL⁻¹
- reticulocytes (day −14): 1.7%
- MCH [12]: 24 pg
- MCHC [12]: 29 g/dL
- MCV [12]: 81 fL
- RBC count [12]: 5.5e+06 µL⁻¹
- WBC count [12]: 15000 µL⁻¹
- basophils [12]: 0.2%
- eosinophils [12]: 0.5%
- hematocrit [12]: 44%
- hemoglobin [12]: 12.8 g/dL
- lymphocytes [12]: 47%
- monocytes [12]: 2.9%
- neutrophils [12]: 48%
- platelet count [12]: 387000 µL⁻¹
- reticulocytes [12]: 1.1%
- MCH [13]: 23 pg
- MCHC [13]: 30 g/dL
- MCV [13]: 78 fL
- RBC count [13]: 5.3e+06 µL⁻¹
- WBC count [13]: 13000 µL⁻¹
- hematocrit [13]: 41%
- hemoglobin [13]: 12.4 g/dL
